Reference: patent US20020098520A1, “Cell tests and diagnostic index for alzheimer's disease” (priority 1993, published 2002)
Where two headings read alike, the source gives them in different places.

Tests used:
[1] = tested on: human skin fibroblasts (AD, AC, YC); conditions: for TEA Response Blind / TEA Response Non Blind: one cell line per table line
Experimental: Thirteen AD, ten AC, and six YC were used for the calcium-imaging experiments. Culture medium was replaced and washed three times with basal salt solution (“BSS”) consisting of 140 mM NaCl, 5 mM KCl2.5 mM CaCl2, 1.5 mm MgCl2, 5 mM glucose, 10 mM HEPES (NaOH), pH 7.4. Nominally Ca^2+ free BSS was prepared as BSS without adding CaCl2.
Fura-2 (acetyloxymethyl ester) (Fura-2AM) was purchased from Molecular Probes (Eugene, Oreg.) and stored as a 1 mM solution in dimethylsulfoxide. Fura-2AM was added to a final concentration of 2 µM and cells were incubated at room temperature (21°-23° C.) for 60 minutes. After incubation, cells were washed at least three times with BSS at room temperature before [Ca^2+]i determinations. Fluorescence was measured with a Hamamatsu ARGUS 50 imaging system (Hamamatsu Photonics, Japan) under the control of a personal computer (Hamamatsu imaging software package). Excitation at 340 nm and 380 nm was attenuated with neutral density filters. Fluorescent images were obtained with a 400 nm dichroic mirror and a 510 nm long-pass barrier filter. The objective lens was an X10 Nikon UV fluor. Fluorescence was measured within a uniformly illuminated fraction (¼) of the whole image.
The averaged Ca^2+ responses within 15×15 pixels in cytosolic and in nuclear cellular compartments obtained were quantified with ratios between emitted 510 nm fluorescence activated at 340 nm and fluorescence emitted at 510 nm with activation at 380 nm. These ratios were transformed to absolute values of [Ca^2+], after calibration based on the following equation:
R=Rmax+(Rmin−Rmax)/(1+([Ca^2+]i/Kd)^b).
Here R denotes fluorescence intensity illuminated by 340 nm divided by fluorescence intensity illuminated by 380 nm (F340/F380), and Rmax and Rmin are the values of R when the concentration of calcium is at a maximum and a minimum (i.e., the maximum and minimum value measurable by the machine under the measuring conditions), respectively. Kd is a dissociation constant of fura-2 for Ca^2+ and was determined as 240 nM. The value of b, which determined the degree of asymmetry, was 1.2. […] A response of 100% [Ca^+2]i elevation in at least 10% of cells in a line was, therefore, considered to be a conservative criterion for a positive response.

[2] = tested on: cultured fibroblasts (AD, controls, Es)
Experimental: Culture medium was removed and cells were washed at least three times with BSS (in mM: NaCl 140, KCl 5, CaCl2 2.5, MgCl2 1.5, HEPES 10, Glucose 5, pH=7.4). The fluorescent probe was loaded by incubating the cells in 2 μM (in BSS) fura 2-AM (Molecular Probes) for 60 min at room temperature. After loading, cells were washed thoroughly with BSS or BSS-0 Ca^2+ (in mM: NaCl 140, KCl 5, CaCl2 0.1, MgCl2 1.5, EGTA 1, HEPES 10, Glucose 5, pH=7.4). After washes, 1 ml of fresh solution was added for intracellular Ca^2+ baseline measurements. […] This solution was adjusted in order to introduce no osmolality changes. […] Bradykinin (Calbiochem) in BSS and BSS-0 Ca^2+ (1 ml) was also used at concentrations of 100 pM, 1 nm and 10 nM. Fluorescent images at 340 and 380 nm were acquired at a rate of 2.6/sec. for 200 sec, with a Hamamatsu Argus 50 system (Hamamatsu Photonics). The objective lens was a 10×Nikon fluor. Only the ¼ evenly illuminated area of the whole image was acquired. Individual ratio values were obtained off-line for all cells within the area of interest. Three to five dishes of a given cell line were used for each experimental condition. The number of cells measured per cell line was at least 50. In most cases, experiments for each cell line were repeated on at least one separate occasion (minimum one week interval).

[3] = tested on: 166 pS K^+ channel; assay: Patch-clamp, cell-free patches: channel sensitivity to blockers; format: cell-based, human; conditions: outside-out patches
Experimental: (§1) Patch-clamp experiments were performed at room temperature (21-23° C.), following standard procedures set forth in Sakmann, B. and Neher, E. (1983) Single Channels Recordings (Plenum New York) and Kukuljan, M., et al. (1991) J. Membrane Biol. 119:187. Before recordings, […] culture medium was replaced with the following solution: 150 mM NaCl, 5 mM KCl, 2 mM CaCl2, 1 MM MgCl2, 10 mM HEPES […] pH=7.4. Pipettes were made from Blue Tip capillary tubes (I.D. 1.1-1.2 mm) using a BB-CH Mecanex puller, and then filled with a high potassium solution of 140 mM KCl, 2 mM CaCl2, 1 mM MgCl2, 10 mM HEPES (NaOH), pH=7.4. Pipette resistances were approximately 6 MΩ. Records were obtained using an Axopatch-1C amplifier (dc-10 kHz), stored on tape (Toshiba PCM-video recorder), and later transferred to a personal computer using an Axolab interface. Only recordings lasting for at least 3 minutes were considered for final analysis. The pClamp suite of programs was used for single-channel data acquisition and analysis. Amplifier, interface and software were obtained from Axon Instruments (Foster City, Calif.).

[4] = tested on: 113 pS K^+ channel; assay: as above; format: cell-based, human; conditions: outside-out patches, n=4 YC, n=3 AC
Experimental: as §1

[5] = tested on: control fibroblasts; conditions: after 100 MM TEA addition, control cells n=4
Experimental: as §1

[6] = tested on: neuropathological non-AD fibroblasts
[7] = 100 mM TEA, Age-Matched Control Fibroblasts
[8] = 100 mM TEA, Young Control Fibroblasts
[9] = Alzheimer's Patients, total 738 cells
[10] = Young Controls, total 532 cells

CC[N+](CC)(CC)CC [TEA, tetraethylammonium]
[Ca^2+]i elevation in response to TEA ([1]; 1 mM TEA, YC fibroblasts): elevated
[Ca^2+]i elevation in response to TEA ([1]; 10 mM TEA, AC fibroblasts): elevated
[Ca^2+]i elevation in response to TEA ([1]; 10 mM TEA, YC fibroblasts): elevated
[Ca^2+]i elevation in response to TEA ([1]; 100 mM TEA, AC fibroblasts): elevated
return of [Ca^2+]i to basal levels ([1]; 100 mM TEA, YC and AC fibroblasts): 100 s
[Ca^2+]i elevation in response to TEA ([1]; 100 mM TEA, YC fibroblasts): elevated
TEA Response Blind [1, 7]: +
TEA Response Non Blind [1, 7]: +
TEA Response Blind ([1]; 100 mM TEA, Alzheimer's Disease Fibroblasts): −
TEA Response Non Blind ([1]; 100 mM TEA, Alzheimer's Disease Fibroblasts, criterion 100% elevation in at least 10% of cells): −
TEA Response Blind [1, 8]: +
TEA Response Non Blind [1, 8]: +
Number of Cell Lines, Increase in [Ca^+2]i with 100 mM TEA ([1]; Aged Controls, total 10 cell lines): 10
Number of Cells, Increase in [Ca^+2]i with 100 mM TEA ([1]; Aged Controls, total 417 cells): 119
Percent of cells, Increase in [Ca^+2]i with 100 mM TEA ([1]; Aged Controls, total 417 cells): 29%
Number of Cell Lines, Increase in [Ca^+2]i with 100 mM TEA ([1]; Alzheimer's Patients, total 13 cell lines): 0
Number of Cells, Increase in [Ca^+2]i with 100 mM TEA [1, 9]: 4
Percent of cells, Increase in [Ca^+2]i with 100 mM TEA [1, 9]: 0.5%
cells with a minimum of 100% [Ca^+2]i elevation ([1]; TEA application, every control cell line except one young control): at least 18 % of cells
cells with 100% [Ca^+2]i elevation ([1]; TEA application, the only AD cell line with any response): 4 % of cells
Number of Cell Lines, Increase in [Ca^+2]i with 100 mM TEA ([1]; Young Controls, total 6 cell lines): 5
Number of Cells, Increase in [Ca^+2]i with 100 mM TEA [1, 10]: 145
Percent of cells, Increase in [Ca^+2]i with 100 mM TEA [1, 10]: 27%
% of responding cells in Es cell lines ([2]; 100 mM TEA, 3 Es cell lines): lower % of responding cells
number of control cell lines with significant Ca^2+ elevations meeting CR ([2]; 100 mM TEA, 11 control cell lines): 11
number of AD cell lines that did not meet CR ([2]; 100 mM TEA, 14 AD cell lines): 10
% of responding cells in AD cell lines compared to controls ([2]; TEA-induced responses): significantly reduced
sensitivity of the 166 pS channel to TEA [3]: only the 113 PS channel was sensitive
sensitivity of the 113 pS channel to TEA [4]: sensitive
depolarization of control cells [5]: 13-20 mV
TEA ([6]; Parkinson's donor cell line): +
TEA ([6]; Schizophrenia donors, one cell line per table line): +
TEA ([6]; Wernicke-Kors. donors, one cell line per table line): +
